Data set [1] has as its system CYP3A4. As to conditions: cited from earlier work.
The target in data set [2] is human CYP2D6 (Homo sapiens, UniProt P10635). In words: Substrate-induced spin shift titration, purified CYP2D6 in solution. The class given is binding. As to conditions: for maximal amplitude of the spin shift: purified CYP2D6 in solution.
The target of data set [3] is T1, human CYP2D6 (CYP2D6-incorporated proteoliposomes) (Homo sapiens, UniProt P10635). Nature of the data set: Substrate-induced spin shift titration, CYP2D6-PLS. As to conditions: for Kd: dissociation constant (KD), spin shift titration. It is filed as binding.
The target in data set [4] is T1, human CYP2D6 (CYP2D6-incorporated proteoliposomes). Nature of the data set: Spectroscopic study of MDMA-dependent MIC formation in CYP2D6-PLS. The class given is biochemical.
Data set [5] shares this target. In words: MDMA utilization and DHMA formation in CYP2D6-PLS. The class given is in vitro ADME.
The target is the same in data set [6]. Nature of the data set: MDMA-dependent time-dependent inhibition.
The target in data set [7] is T2, CYP2D6 (CYP2D6 Supersomes) (Homo sapiens, UniProt P10635). In words: Spectroscopic study of MDMA-dependent MIC formation in CYP2D6-SS. The following applies: 100 μM MDMA, exponential fit. The class given is biochemical.
A short description of data set [8]: MDMA liver-to-blood ratio and liver concentration. The following applies: estimated from plasma peak and liver-to-blood ratio.
The conditions of data set [9]: healthy volunteers, recreational dose 100–150 mg; cited from earlier work.
Data set [10] has as its target T2, CYP2D6 (CYP2D6 Supersomes). In words: MDMA-dependent TDI in CYP2D6-SS with BMAMC as probe substrate. As to conditions: 100 μM MDMA, exponential fit.
The test system of data set [11] is CYP2D6. As to conditions: read-out: KM for BMAMC; CYP2D6-containing bacterial membranes; cited from earlier work.
Substrate in data set [12]: CCCCNCc1cc(=O)oc2cc(OC)ccc12
In words: Fluorometric determination of CYP2D6 activity with BMAMC in CYP2D6-SS. It is filed as biochemical, human. The following applies: other: CYP2D6-SS, 30 °C.

[13] abbreviates: CYP2D6-PLS, 100 μM MDMA, exponential fit.
Setting [14] is: kinetic model fit, kinetics of MIC formation.
[15] abbreviates: kinetic model fit, kinetics of DHMA production.

The text below walks through data of publication PMC6512342 (Biochemical pharmacology, 2018).

“And” between values parts separate entries of the source, which are not always exact repeats. Equal entries are not always repeated. Some results are limits rather than exact numbers.

As to `COc1cc([C@@H]2c3cc4c(cc3[C@H](O)[C@H]3COC(=O)[C@H]23)OCO4)cc(OC)c1OC` [podophylotoxin], in [1], the “reversibility of the Fe2+:carbene complex (MIC)” value is on record as “virtually irreversible”.
With `COc1ccc2c(c1)[C@]13CCCC[C@@H]1[C@H](C2)N(C)CC3` [DXM, Dextromethorphan], in [2], the dissociation constant (Kd) is 45.7 ± 3.1 µM and the “maximal amplitude of the spin shift” value was found to be 11.9±1.8%. For the same molecule, in data set [3], the “maximal amplitude of the spin shift (Amax)” value is 25% and 24.7±0.4%; the Kd was 52 µM and 53.2 µM.
For `CNC(C)Cc1ccc2c(c1)OCO2` (stereo not drawn) [MDMA, 3,4-methylenedioxymethamphetamine], the entries for the “Amax (MIC)” value in [4] (setting [13]) and in [7] were 37% and 49%, respectively. In addition, the “Kobs (MIC)” value in data set [4] (setting [13]) was determined as 0.085 min⁻¹; in data set [7] it was 0.19 min⁻¹. The “maximal amplitude of MIC formation” value in [4] (CYP2D6-PLS, saturating MDMA) is on record as 45 ± 3 % of the total P450 content. Moreover, the Kd was 55.5 µM in data set [4] (kD, kinetic model fit, kinetics of MIC formation, k2/k1 with k1 fixed); 49.5 µM in [5]; 23.9 µM in data set [6]; 21.8 ± 7.7 µM in data set [2]; 24 µM and 27.9 µM in [3]. In addition, the k3 was found to be 1.7 min⁻¹ in [4] (setting [14]); 3.9 min⁻¹ in data set [5] (setting [15]); 3.2 min⁻¹ in data set [6] (kinetic model fit, TDI). Further, the k4 came to 0.167 min⁻¹ in [4] (setting [14]); 0.14 min⁻¹ in data set [5] (setting [15]); 0.085 min⁻¹ in [6] (kinetic model fit, TDI). In addition, the k5 was determined as 0.027 min⁻¹ in data set [4] (setting [14]); 0.047 min⁻¹ in data set [5] (setting [15]); 0.033 min⁻¹ in data set [6] (kinetic model fit, TDI). The Finact in data set [4] (kinetic model fit, kinetics of MIC formation, CYP2D6-PLS) is 0.423 and 0.42; in data set [5] (kinetic model fit, kinetics of DHMA production, value fixed from MIC analysis), 0.42; in data set [6] (kinetic model fit, TDI, value fixed from MIC analysis), 0.42. Also, the “MDMA concentration after incubation” value in [5] (CYP2D6-PLS with NADPH, 1 hour, initial 5 μM MDMA) is 1.5 µM. The “decrease in MDMA concentration” value in data set [5] (CYP2D6-PLS with NADPH, 1 hour, initial 100 μM MDMA) is ≤ 30 % of the initial concentration. Also, the k6 in [5] (kinetic model fit, kinetics of DHMA production, MDMA-independent inactivation) is 0.041 min⁻¹; in [6] (kinetic model fit, TDI, MDMA-independent inactivation) it was 0.005 min⁻¹. For the same molecule, the “reversibility of inactivation of CYP2D6” value in [6] (CYP2D6-PLS) is “reversible”. The “Kobs (TDI)” value in [6] (setting [13]) was 0.15 min⁻¹; in [10] it was 0.28 min⁻¹. In addition, the “maximal depth of TDI at enzyme saturation with MDMA” value in data set [6] (CYP2D6-PLS, DXM as probe substrate, Michaelis-Menten fit) is on record as 80±8%. Moreover, the “relative amplitude of TDI at MDMA saturation” value in [6] (CYP2D6-PLS, rate of BMAMC metabolism) is reported as “over 80%”. Also, the “maximal amplitude of the spin shift” value in data set [2] is on record as 6.0± 1.5%. Also, the “maximal amplitude of the spin shift (Amax)” value in [3] was 8.1% and 10.9±5.5%. The “physiological concentration of MDMA in human liver” value in [8] was not above 10 pM. In addition, the “peak concentration in blood plasma” value in data set [9] was 1 pM.
In the case of `CCCCNCc1cc(=O)oc2cc(OC)ccc12` [BMAMC, N-butyl 7-methoxy-4-(aminomethyl)-coumarin], in data set [11], the Km was 1.5 µM.

B1: CYP2D6 (CYP2D6 Supersomes) (Homo sapiens) (protein)
chain: MGLEALVPLAVIVAIFLLLVDLMHRRQRWAARYPPGPLPLPGLGNLLHVDFQNTPYCFDQLRRRFGDVFSLQLAWTPVVVLNGLAAVREALVTHGEDTADRPPVPITQILGFGPRSQGVFLARYGPAWREQRRFSVSTLRNLGLGKKSLEQWVTEEAACLCAAFANHSGRPFRPNGLLDKAVSNVIASLTCGRRFEYDDPRFLRLLDLAQEGLKEESGFLREVLNAVPVLLHIPALAGKVLRFQKAFLTQLDELLTEHRMTWDPAQPPRDLTEAFLAEMEKAKGNPESSFNDENLRIVVADLFSAGMVTTSTTLAWGLLLMILHPDVQRRVQQEIDDVIGQVRRPEMGDQAHMPYTTAVIHEVQRFGDIVPLGVTHMTSRDIEVQGFRIPKGTTLITNLSSVLKDEAVWEKPFRFHPEHFLDAQGHFVKPEAFLPFSAGRRACLGEPLARMELFLFFTSLLQHFSFSVPTGQPRPSHHGVFAFLVSPSPYELCAVPR
Take B1: the Michaelis-Menten constant (Km) in data set [12] turned out to be 3.5 µM.
